Measured values published in article PMC11882969 (Nature Communications, 2025).
“And” between values parts separate entries of the source, which are not always exact repeats. Equal entries are not always repeated. Where two headings read alike, the source gives them in different places.

Assays:
[1] = target: panel of 320 non-olfactory GPCRs (Homo sapiens, UniProt Q8NGU9); format: cell-based
[2] = target: panel of 320 non-olfactory GPCRs (Homo sapiens, UniProt Q96RJ0); format: cell-based
[3] = target: panel of 320 non-olfactory GPCRs (Homo sapiens, UniProt Q969V1); format: cell-based
[4] = target: panel of 320 non-olfactory GPCRs (Homo sapiens, UniProt Q13639); format: cell-based
[5] = target: panel of 320 non-olfactory GPCRs (Homo sapiens, UniProt P18089); format: cell-based
[6] = target: panel of 320 non-olfactory GPCRs (Homo sapiens, UniProt Q9HBX9); format: cell-based
[7] = target: panel of 320 non-olfactory GPCRs (Homo sapiens, UniProt Q96AM1); format: cell-based
[8] = target: panel of 320 non-olfactory GPCRs (Homo sapiens, UniProt P30939); format: cell-based
[9] = target: panel of 320 non-olfactory GPCRs (Homo sapiens, UniProt Q8IWK6); format: cell-based
[10] = target: panel of 320 non-olfactory GPCRs (Homo sapiens, UniProt Q8IZF4); format: cell-based
[11] = target: panel of 320 non-olfactory GPCRs (Homo sapiens, UniProt Q02643); format: cell-based
[12] = target: panel of 320 non-olfactory GPCRs (Homo sapiens, UniProt Q9BXC0); format: cell-based
[13] = target: panel of 320 non-olfactory GPCRs (Homo sapiens, UniProt Q96PE1); format: cell-based
[14] = target: panel of 320 non-olfactory GPCRs (Homo sapiens, UniProt P43115); format: cell-based
[15] = target: panel of 320 non-olfactory GPCRs (Homo sapiens, UniProt P25024); format: cell-based
[16] = target: panel of 320 non-olfactory GPCRs (Homo sapiens, UniProt P32248); format: cell-based
[17] = target: panel of 320 non-olfactory GPCRs (Homo sapiens, UniProt Q9H1Y3); format: cell-based
[18] = target: panel of 320 non-olfactory GPCRs (Homo sapiens, UniProt Q96LA9); format: cell-based
[19] = relative to 100 at 0 min
Description: Microsomal incubations were carried out in 96-well plates in 5 aliquots of 30 μL each (one for each time point). […] In the control reactions, the NADPH-cofactor system was substituted with phosphate buffer. […] Five time points over 40 min were analyzed. The reactions were stopped by adding 5 volumes of acetonitrile with internal standard to incubation aliquots, followed by protein sedimentation by centrifuging at 4869 g for 5 min. Each reaction was performed in duplicates. Supernatants were analyzed using the HPLC system coupled with a tandem mass spectrometer. The elimination constant (kel), half-life (T1/2), and intrinsic clearance (Clint) were determined in a plot of ln(AUC) versus time, using linear regression analysis.

[20] = target: panel of 320 non-olfactory GPCRs (Homo sapiens, UniProt O00398); format: cell-based
[21] = target: panel of 320 non-olfactory GPCRs (Homo sapiens, UniProt Q8IZF7); format: cell-based
[22] = target: panel of 320 non-olfactory GPCRs (Homo sapiens, UniProt O14842); format: cell-based
[23] = target: panel of 320 non-olfactory GPCRs (Homo sapiens, UniProt P60893); format: cell-based
[24] = target: panel of 320 non-olfactory GPCRs (Homo sapiens, UniProt P50406); format: cell-based
[25] = target: panel of 320 non-olfactory GPCRs (Homo sapiens, UniProt Q8TDS5); format: cell-based
[26] = target: panel of 320 non-olfactory GPCRs (Homo sapiens, UniProt Q99500); format: cell-based
[27] = target: panel of 320 non-olfactory GPCRs (Homo sapiens, UniProt Q99705); format: cell-based
[28] = target: panel of 320 non-olfactory GPCRs (Homo sapiens, UniProt P50391); format: cell-based
[29] = target: panel of 320 non-olfactory GPCRs (Homo sapiens, UniProt O14626); format: cell-based
[30] = relative to 100 at 0 min; remark: listed apart in the source
Description: The reactions were stopped by adding 240 μL 90% acetonitrile containing internal standard with subsequent plasma proteins sedimentation by centrifuging at 5796 g for 5 min. Supernatants were analyzed by the HPLC system coupled with a tandem mass spectrometer. The percentage of the test compounds remaining after incubation in plasma and their half-lives (T1/2) were calculated.
Wherever Fold of Basal RLU is given: test concentration or dose not given here.

Chain of panel of 320 non-olfactory GPCRs (Homo sapiens, UniProt P43115) (P43115 whole entry): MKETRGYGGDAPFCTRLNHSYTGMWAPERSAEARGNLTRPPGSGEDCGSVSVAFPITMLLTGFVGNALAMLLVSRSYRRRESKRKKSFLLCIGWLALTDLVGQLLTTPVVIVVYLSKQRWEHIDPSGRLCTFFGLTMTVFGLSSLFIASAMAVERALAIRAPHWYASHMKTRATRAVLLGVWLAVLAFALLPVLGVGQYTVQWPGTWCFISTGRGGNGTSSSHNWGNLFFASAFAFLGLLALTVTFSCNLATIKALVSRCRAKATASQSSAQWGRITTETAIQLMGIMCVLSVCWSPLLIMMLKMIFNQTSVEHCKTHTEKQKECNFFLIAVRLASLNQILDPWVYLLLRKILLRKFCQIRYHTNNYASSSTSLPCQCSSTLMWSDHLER
Chain of panel of 320 non-olfactory GPCRs (Homo sapiens, UniProt P30939) (P30939 whole entry): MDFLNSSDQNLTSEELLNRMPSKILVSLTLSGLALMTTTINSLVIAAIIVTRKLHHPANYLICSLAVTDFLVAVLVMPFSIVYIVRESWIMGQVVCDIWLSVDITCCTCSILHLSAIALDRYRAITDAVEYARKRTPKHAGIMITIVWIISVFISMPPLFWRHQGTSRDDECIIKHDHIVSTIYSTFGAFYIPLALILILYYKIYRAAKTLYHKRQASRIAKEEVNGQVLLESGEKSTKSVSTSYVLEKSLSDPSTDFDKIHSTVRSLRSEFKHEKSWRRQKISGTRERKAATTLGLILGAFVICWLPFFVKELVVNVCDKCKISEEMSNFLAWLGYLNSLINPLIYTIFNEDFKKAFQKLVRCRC
Chain of panel of 320 non-olfactory GPCRs (Homo sapiens, UniProt P32248) (P32248 25-378): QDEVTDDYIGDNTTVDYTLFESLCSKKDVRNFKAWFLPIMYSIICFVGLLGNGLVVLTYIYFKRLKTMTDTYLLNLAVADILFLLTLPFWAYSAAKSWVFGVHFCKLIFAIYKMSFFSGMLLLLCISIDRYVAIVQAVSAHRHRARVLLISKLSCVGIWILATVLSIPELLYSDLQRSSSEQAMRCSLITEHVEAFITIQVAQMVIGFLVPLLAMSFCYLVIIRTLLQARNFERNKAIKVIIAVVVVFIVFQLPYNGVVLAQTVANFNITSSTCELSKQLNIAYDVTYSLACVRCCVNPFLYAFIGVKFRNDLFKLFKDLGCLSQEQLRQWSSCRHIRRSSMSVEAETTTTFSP
Chain of panel of 320 non-olfactory GPCRs (Homo sapiens, UniProt Q02643) (Q02643 23-423): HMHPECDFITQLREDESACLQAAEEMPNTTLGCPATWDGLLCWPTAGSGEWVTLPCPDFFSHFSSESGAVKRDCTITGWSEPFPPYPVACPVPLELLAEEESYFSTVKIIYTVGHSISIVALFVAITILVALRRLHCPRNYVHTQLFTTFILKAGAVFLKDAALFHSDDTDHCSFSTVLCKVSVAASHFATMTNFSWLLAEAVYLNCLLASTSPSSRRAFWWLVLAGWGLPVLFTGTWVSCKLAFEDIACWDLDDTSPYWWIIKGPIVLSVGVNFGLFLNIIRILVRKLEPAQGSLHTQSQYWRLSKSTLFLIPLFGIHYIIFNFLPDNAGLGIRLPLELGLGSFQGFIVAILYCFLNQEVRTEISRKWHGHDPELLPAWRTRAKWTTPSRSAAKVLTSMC
Chain of panel of 320 non-olfactory GPCRs (Homo sapiens, UniProt P50406) (P50406 whole entry): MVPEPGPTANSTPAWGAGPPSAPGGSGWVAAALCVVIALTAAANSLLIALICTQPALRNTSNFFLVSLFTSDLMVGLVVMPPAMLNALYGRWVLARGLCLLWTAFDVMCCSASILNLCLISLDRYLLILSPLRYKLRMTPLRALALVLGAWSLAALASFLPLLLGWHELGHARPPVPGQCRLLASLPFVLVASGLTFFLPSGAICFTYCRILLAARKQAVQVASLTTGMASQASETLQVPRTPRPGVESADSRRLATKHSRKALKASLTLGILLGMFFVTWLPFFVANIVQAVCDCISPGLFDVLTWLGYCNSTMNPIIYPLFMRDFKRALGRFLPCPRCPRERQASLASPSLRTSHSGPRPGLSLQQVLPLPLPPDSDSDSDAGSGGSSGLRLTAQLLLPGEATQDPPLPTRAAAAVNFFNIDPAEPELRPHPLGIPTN
Chain of panel of 320 non-olfactory GPCRs (Homo sapiens, UniProt Q99500) (Q99500 whole entry): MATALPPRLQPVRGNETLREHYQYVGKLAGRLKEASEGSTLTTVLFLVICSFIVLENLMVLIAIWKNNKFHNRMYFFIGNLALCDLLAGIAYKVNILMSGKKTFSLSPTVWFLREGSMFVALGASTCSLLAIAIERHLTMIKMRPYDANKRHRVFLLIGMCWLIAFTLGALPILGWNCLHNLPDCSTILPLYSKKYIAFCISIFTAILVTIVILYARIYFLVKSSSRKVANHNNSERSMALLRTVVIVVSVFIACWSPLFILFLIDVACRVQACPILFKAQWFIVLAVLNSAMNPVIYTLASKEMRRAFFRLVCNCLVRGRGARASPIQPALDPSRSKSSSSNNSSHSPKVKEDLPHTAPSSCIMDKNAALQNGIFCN
Chain of panel of 320 non-olfactory GPCRs (Homo sapiens, UniProt Q8IZF7) (Q8IZF7 whole entry): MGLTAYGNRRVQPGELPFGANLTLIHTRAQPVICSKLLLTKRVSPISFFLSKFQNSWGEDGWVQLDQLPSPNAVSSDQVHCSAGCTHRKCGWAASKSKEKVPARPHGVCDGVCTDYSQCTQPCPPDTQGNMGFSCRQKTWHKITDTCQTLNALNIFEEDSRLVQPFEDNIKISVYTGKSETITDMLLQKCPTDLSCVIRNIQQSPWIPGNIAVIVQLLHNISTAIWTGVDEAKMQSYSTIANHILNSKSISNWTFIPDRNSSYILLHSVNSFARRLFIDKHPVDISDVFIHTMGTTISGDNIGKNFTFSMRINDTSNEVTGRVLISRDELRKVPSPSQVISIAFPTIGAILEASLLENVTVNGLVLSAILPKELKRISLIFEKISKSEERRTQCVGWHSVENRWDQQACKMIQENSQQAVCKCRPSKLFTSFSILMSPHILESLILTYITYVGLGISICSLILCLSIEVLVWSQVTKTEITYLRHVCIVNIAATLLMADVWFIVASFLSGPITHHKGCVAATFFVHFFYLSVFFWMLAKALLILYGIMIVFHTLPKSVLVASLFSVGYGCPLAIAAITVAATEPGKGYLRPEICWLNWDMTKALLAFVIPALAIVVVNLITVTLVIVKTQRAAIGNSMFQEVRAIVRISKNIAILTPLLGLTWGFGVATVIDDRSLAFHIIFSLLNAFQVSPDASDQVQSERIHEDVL
Chain of panel of 320 non-olfactory GPCRs (Homo sapiens, UniProt P60893) (P60893 whole entry): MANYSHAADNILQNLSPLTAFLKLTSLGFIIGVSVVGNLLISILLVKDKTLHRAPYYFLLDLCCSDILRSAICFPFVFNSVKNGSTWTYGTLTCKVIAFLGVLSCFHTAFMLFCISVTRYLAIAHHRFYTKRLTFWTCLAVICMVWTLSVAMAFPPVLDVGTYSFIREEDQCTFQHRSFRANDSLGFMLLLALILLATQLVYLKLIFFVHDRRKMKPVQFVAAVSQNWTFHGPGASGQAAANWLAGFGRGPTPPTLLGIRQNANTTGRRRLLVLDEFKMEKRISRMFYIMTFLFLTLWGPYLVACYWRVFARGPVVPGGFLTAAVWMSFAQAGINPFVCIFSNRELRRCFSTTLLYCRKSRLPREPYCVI
Chain of panel of 320 non-olfactory GPCRs (Homo sapiens, UniProt Q96LA9) (Q96LA9 whole entry): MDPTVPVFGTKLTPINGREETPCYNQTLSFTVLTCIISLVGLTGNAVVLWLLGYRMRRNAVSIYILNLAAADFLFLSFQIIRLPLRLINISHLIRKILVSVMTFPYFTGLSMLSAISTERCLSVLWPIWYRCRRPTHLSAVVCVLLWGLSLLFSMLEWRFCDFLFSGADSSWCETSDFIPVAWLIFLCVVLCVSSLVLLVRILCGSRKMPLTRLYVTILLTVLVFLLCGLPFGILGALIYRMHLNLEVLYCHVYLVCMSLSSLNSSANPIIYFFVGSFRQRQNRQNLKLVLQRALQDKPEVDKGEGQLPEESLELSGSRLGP
Chain of panel of 320 non-olfactory GPCRs (Homo sapiens, UniProt P25024) (P25024 whole entry): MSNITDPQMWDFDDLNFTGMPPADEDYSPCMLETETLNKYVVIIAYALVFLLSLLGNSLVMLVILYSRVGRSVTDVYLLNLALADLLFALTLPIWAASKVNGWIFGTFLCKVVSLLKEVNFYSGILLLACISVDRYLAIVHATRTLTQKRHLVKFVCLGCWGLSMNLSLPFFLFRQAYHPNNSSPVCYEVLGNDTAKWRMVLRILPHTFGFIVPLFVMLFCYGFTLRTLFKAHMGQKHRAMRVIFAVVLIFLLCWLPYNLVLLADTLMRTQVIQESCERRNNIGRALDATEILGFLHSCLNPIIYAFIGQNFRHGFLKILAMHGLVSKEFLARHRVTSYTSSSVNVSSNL
Chain of panel of 320 non-olfactory GPCRs (Homo sapiens, UniProt Q969V1) (Q969V1 whole entry): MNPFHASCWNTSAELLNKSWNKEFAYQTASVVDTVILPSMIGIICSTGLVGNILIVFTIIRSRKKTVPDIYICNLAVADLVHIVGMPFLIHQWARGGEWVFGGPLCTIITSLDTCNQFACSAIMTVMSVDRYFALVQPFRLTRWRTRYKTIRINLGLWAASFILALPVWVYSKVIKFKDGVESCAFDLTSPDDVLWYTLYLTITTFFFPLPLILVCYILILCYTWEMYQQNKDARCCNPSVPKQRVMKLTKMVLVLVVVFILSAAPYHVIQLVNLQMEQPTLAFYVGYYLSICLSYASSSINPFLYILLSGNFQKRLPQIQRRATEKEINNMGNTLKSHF
Chain of panel of 320 non-olfactory GPCRs (Homo sapiens, UniProt Q96AM1) (Q96AM1 whole entry): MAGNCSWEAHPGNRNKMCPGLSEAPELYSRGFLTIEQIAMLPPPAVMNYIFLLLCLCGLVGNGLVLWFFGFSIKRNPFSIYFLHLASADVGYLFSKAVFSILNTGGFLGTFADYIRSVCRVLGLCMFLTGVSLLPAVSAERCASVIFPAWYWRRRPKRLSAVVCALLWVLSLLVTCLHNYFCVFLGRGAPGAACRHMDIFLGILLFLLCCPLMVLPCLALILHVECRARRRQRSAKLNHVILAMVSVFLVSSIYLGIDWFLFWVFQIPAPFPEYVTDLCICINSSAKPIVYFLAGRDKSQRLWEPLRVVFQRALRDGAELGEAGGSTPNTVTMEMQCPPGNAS

SMILES: Cc1cc(C(=O)NC(C)(c2ccco2)c2ccco2)nn1-c1cccc(C(F)(F)F)c1 [‘4936]
- Fold of Basal RLU [1]: 0.7 and 0.6 and 0.5
- Fold of Basal RLU [2]: 1 fold and 1.1 fold and 0.9 fold
- Fold of Basal RLU [3]: 1.7 and 1.4 and 1 and 1.6
- Fold of Basal RLU [4]: 1 fold and 1.6 fold and 0.9 fold
- Fold of Basal RLU [5]: 0.9 and 1.2 and 1.6 and 1
- Fold of Basal RLU [6]: 0.9 and 1.1 and 1.7 and 1.3
- Fold of Basal RLU [7]: 0.6 fold and 0.8 fold and 0.9 fold
- Fold of Basal RLU [8]: 0.8 fold and 1.5 fold and 0.9 fold
- Fold of Basal RLU [9]: 0.7 fold and 1 fold
- Fold of Basal RLU [10]: 0.9 and 1 and 0.8 and 0.6
- Fold of Basal RLU [11]: 0.7 and 0.6 and 1
- Fold of Basal RLU [12]: 0.4 and 0.7 and 0.6
- Fold of Basal RLU [13]: 0.6 fold and 0.5 fold and 0.9 fold and 1 fold
- Fold of Basal RLU [14]: 1.5 fold and 0.9 fold and 1 fold
- Fold of Basal RLU [15]: 0.9 fold and 1.4 fold and 1.3 fold
- Fold of Basal RLU [16]: 0.9 and 0.7 and 0.6
- Fold of Basal RLU [17]: 0.4 and 0.5
- Fold of Basal RLU [18]: 0.6 and 0.8 and 1.1

SMILES: COC(=O)[C@@](C)(NC(=O)c1cc(C)n(-c2cccc(C(F)(F)F)c2)n1)c1cccs1 [‘1350]
- Stability time course, Mean (FS10f) ([19]; Time 0 min): 100
- Stability time course, Mean (FS10f) ([19]; Time 7 min): 13.0354
- Stability time course, Mean (FS10f) ([19]; Time 15 min): 0.461
- Stability time course, Mean (FS10f) ([19]; Time 25 min): 0.1608
- Stability time course, Mean (FS10f) ([19]; Time 40 min): 0.1274
- Fold of Basal RLU [20]: 1.1 and 1 and 1.2
- Fold of Basal RLU [21]: 0.8 and 0.9 and 0.7 and 0.5
- Fold of Basal RLU [22]: 1.4 and 0.7 and 1.1 and 0.8
- Fold of Basal RLU [23]: 1 fold and 1.9 fold and 1.2 fold
- Fold of Basal RLU [24]: 1.2 and 1 and 1.1
- Fold of Basal RLU [25]: 0.4 and 0.8 and 0.5
- Fold of Basal RLU [26]: 0.4 and 0.5 and 0.8
- Fold of Basal RLU [27]: 1.3 and 1.1 and 0.7
- Fold of Basal RLU [28]: 1.3 and 1.4 and 1 and 0.7
- Fold of Basal RLU [29]: 1.4 and 1 and 1.5 and 0.8
- Stability time course, Mean (FigS10e) ([30]; Time 0 min): 100
- Stability time course, Mean (FigS10e) ([30]; Time 20 min): 84.0951
- Stability time course, Mean (FigS10e) ([30]; Time 40 min): 66.362
- Stability time course, Mean (FigS10e) ([30]; Time 60 min): 47.7148
- Stability time course, Mean (FigS10e) ([30]; Time 120 min): 13.638
